According to PMC7274154, “Identification and Characterization of GPCRs for Pyrokinin and CAPA Peptides in the Brown Marmorated Stink Bug, Halyomorpha halys (Hemiptera: Pentatomidae)” (Frontiers in Physiology, 2020):
Entries after “also recorded” stand apart in the source; their conditions may differ. Where no end group is shown, it is not given here.

Tests used:
Type in all cases: cell-based, Halyomorpha halys
HalhaPK-R1b [1] = assay: Concentration-response, calcium mobilization (FLIPR Calcium 6) in Sf9 cells expressing HalhaPK-R1b; settings: for EC50: HalhaPK-R1b in Sf9 cells, intracellular calcium, FLIPR Calcium 6 fluorescence, at least three independent experiments, read-out: Half-maximum effective concentration (EC50)
Experimental: (§1) Five micrograms of each purified pIB/HalhaPK-R (or CAPA-R) plasmid and 15 μL of Cellfectin II reagent (Thermo Fisher Scientific) were diluted into 500 μL of serum free Insectagro Sf9 medium (Corning, Corning, NY, United States) and allowed to incubate for 10 min at room temperature, after which they were mixed together and allowed to incubate for an additional 15–20 min. Each pIB/HalhaPK-R (or CAPA-R) Cellfectin mixture was then added to T-25 cell culture flasks containing Sf9 cells at 50% confluency and incubated overnight at 28°C. The following morning the media was removed from each flask and replaced with media containing 20 μg/mL blasticidin (Corning). Each transfected cell line was cultured in the presence of 20 μg/mL blasticidin for ∼3 weeks until a blasticidin-resistant cell line was established, after which the blasticidin concentration was reduced to 10 μg/mL and the cell lines were frozen prior to testing in functional assays.
(§2) Peptides encoded by H. halys pyrokinin and capa genes used in this study have been recently identified ([Ahn and Choi, 2018]). Four peptides (>95% purity): PK2 (FYAPFSPRLa), CAPA-PVK1 ([…]a), CAPA-PVK2 (EQLIPFPRVa), and CAPA-DH (= PK1-like, […]a) were synthesized to contain an amide group on their C-termini (Peptide 2.0 Inc., Chantilly, VA, United States). Peptides were solubilized in water, aliquoted into 2–20 nM working stocks, dried using a DNA120 SpeedVac Concentrator (Thermo Scientific), and frozen at –20°C until use in binding assays.
(§3) For each cell line expressing a specific H. halys PRXamide receptor, cells were thawed and cultured for at least three passages in a suspension culture containing blasticidin prior to functional assays. The transfected cell lines were grown as 20 mL suspension cultures in 50 mL-Erlenmeyer flasks with a screw cap, and shaken at 145 rpm at 28°C. For functional assays, cells were taken from a suspension culture in the exponential growth phase, and ∼50,000 cells were plated into each well of a tissue culture-treated, black-walled, 96-well plate (Corning). The plated cells were then incubated at 28°C for 48 h, after which the media was removed from the plates and the wells were rinsed with serum-free media, then loaded with 95 μL of 1X FLIPR Calcium 6 assay reagent (Molecular Devices, Sunnyvale, CA, United States). Plates were incubated at room temperature for 60 min then transferred to a FlexStation 3 Multi-Mode Microplate Reader (Molecular Devices) to measure cell fluorescence intensity from intracellular calcium influx after peptide-induced receptor activation. Wells of cells were then treated with 5 μL of water or 20X concentrations of each peptide using the automated injection system of the FlexStation plate reader. In all experiments, fluorescence was measured every 5 s for 30 s prior to treatment and for 2 min after exposure. In all cases, the maximum response obtained occurred ∼20 s after exposure to ligand. The mean response of four wells receiving the same treatment was calculated and expressed as a change in fluorescence from baseline (prior to treatment) to maximum response. For initial screening, each cell line was exposed to a single concentration of 500 nM of each peptide or control. Compounds that elicited responses were tested further in concentration-response experiments. […]

HalhaCAPA-R = assay: Concentration-response, calcium mobilization (FLIPR Calcium 6) in Sf9 cells expressing HalhaCAPA-R; settings: for EC50: HalhaCAPA-R in Sf9 cells, intracellular calcium, FLIPR Calcium 6 fluorescence, at least three independent experiments, read-out: Half-maximum effective concentration (EC50); for Response in functional assay (words): HalhaCAPA-R, Sf9 cells, concentration-response
Experimental: as §1, §2
(§4) For each cell line expressing a specific H. halys PRXamide receptor, cells were thawed and cultured for at least three passages in a suspension culture containing blasticidin prior to functional assays. The transfected cell lines were grown as 20 mL suspension cultures in 50 mL-Erlenmeyer flasks with a screw cap, and shaken at 145 rpm at 28°C. For functional assays, cells were taken from a suspension culture in the exponential growth phase, and ∼50,000 cells were plated into each well of a tissue culture-treated, black-walled, 96-well plate (Corning). The plated cells were then incubated at 28°C for 48 h, after which the media was removed from the plates and the wells were rinsed with serum-free media, then loaded with 95 μL of 1X FLIPR Calcium 6 assay reagent (Molecular Devices, Sunnyvale, CA, United States). Plates were incubated at room temperature for 60 min then transferred to a FlexStation 3 Multi-Mode Microplate Reader (Molecular Devices) to measure cell fluorescence intensity from intracellular calcium influx after peptide-induced receptor activation. Wells of cells were then treated with 5 μL of water or 20X concentrations of each peptide using the automated injection system of the FlexStation plate reader. In all experiments, fluorescence was measured every 5 s for 30 s prior to treatment and for 2 min after exposure. In all cases, the maximum response obtained occurred ∼20 s after exposure to ligand. The mean response of four wells receiving the same treatment was calculated and expressed as a change in fluorescence from baseline (prior to treatment) to maximum response. For initial screening, each cell line was exposed to a single concentration of 500 nM of each peptide or control. Compounds that elicited responses were tested further in concentration-response experiments. Concentration-response curves and EC50 values were generated using the variable slope, four parameter non-linear regression function of GraphPad Prism data analysis (GraphPad Software, Inc., San Diego, CA, United States). Each cell line was tested for its response to peptides in at least three independent experiments.

HalhaPK-R3b [2] = assay: Concentration-response, calcium mobilization (FLIPR Calcium 6) in Sf9 cells expressing HalhaPK-R3b; settings: for EC50: HalhaPK-R3b in Sf9 cells, intracellular calcium, FLIPR Calcium 6 fluorescence, at least three independent experiments, read-out: Half-maximum effective concentration (EC50); for Response in functional assay (words): HalhaPK-R3b, Sf9 cells, concentration-response
Experimental: as §1, §2, §4

HalhaPK-R1a [3] = assay: Concentration-response, calcium mobilization (FLIPR Calcium 6) in Sf9 cells expressing HalhaPK-R1a; settings: for EC50: HalhaPK-R1a in Sf9 cells, intracellular calcium, FLIPR Calcium 6 fluorescence, at least three independent experiments, read-out: Half-maximum effective concentration (EC50)
Experimental: as §1, §2, §3

HalhaPK-R3a [4] = assay: Concentration-response, calcium mobilization (FLIPR Calcium 6) in Sf9 cells expressing HalhaPK-R3a; settings: for EC50: HalhaPK-R3a in Sf9 cells, intracellular calcium, FLIPR Calcium 6 fluorescence, at least three independent experiments, read-out: Half-maximum effective concentration (EC50); for Response in functional assay (words): HalhaPK-R3a, Sf9 cells, concentration-response
Experimental: as §1, §2, §4

HalhaPK-R2 [5] = assay: Concentration-response, calcium mobilization (FLIPR Calcium 6) in Sf9 cells expressing HalhaPK-R2; settings: for EC50: HalhaPK-R2 in Sf9 cells, intracellular calcium, FLIPR Calcium 6 fluorescence, at least three independent experiments, read-out: Half-maximum effective concentration (EC50); for Response in functional assay (words): HalhaPK-R2, Sf9 cells, concentration-response
Experimental: as §1, §2, §4

HalhaPK-R1a [6] = assay: Initial screening at 500 nM, Sf9 cells expressing HalhaPK-R1a; settings: three independent experiments
Experimental: as §1, with “Each transfected cell line was cultured in the presence of 20 μg/mL blasticidin for ∼3 weeks until a blasticidin-resistant cell line was established, after which the blasticidin concentration was reduced to 10 μg/mL and the cell lines were frozen prior to testing in functional assays.” left out
(§5) For each cell line expressing a specific H. halys PRXamide receptor, cells were thawed and cultured for at least three passages in a suspension culture containing blasticidin prior to functional assays. […] Plates were incubated at room temperature for 60 min then transferred to a FlexStation 3 Multi-Mode Microplate Reader (Molecular Devices) to measure cell fluorescence intensity from intracellular calcium influx after peptide-induced receptor activation. Wells of cells were then treated with 5 μL of water or 20X concentrations of each peptide using the automated injection system of the FlexStation plate reader. In all experiments, fluorescence was measured every 5 s for 30 s prior to treatment and for 2 min after exposure. […]

HalhaPK-R1b [7] = assay: Initial screening at 500 nM, Sf9 cells expressing HalhaPK-R1b; settings: three independent experiments
Experimental: as §1, with “Each transfected cell line was cultured in the presence of 20 μg/mL blasticidin for ∼3 weeks until a blasticidin-resistant cell line was established, after which the blasticidin concentration was reduced to 10 μg/mL and the cell lines were frozen prior to testing in functional assays.” left out
as §5

HalhaPK-R2 [8] = assay: Initial screening at 500 nM, Sf9 cells expressing HalhaPK-R2; settings: three independent experiments
Experimental: as §1, with “Each transfected cell line was cultured in the presence of 20 μg/mL blasticidin for ∼3 weeks until a blasticidin-resistant cell line was established, after which the blasticidin concentration was reduced to 10 μg/mL and the cell lines were frozen prior to testing in functional assays.” left out
as §5

HalhaPK-R3b [9] = assay: Initial screening at 500 nM, Sf9 cells expressing HalhaPK-R3b; settings: three independent experiments
Experimental: as §1, with “Each transfected cell line was cultured in the presence of 20 μg/mL blasticidin for ∼3 weeks until a blasticidin-resistant cell line was established, after which the blasticidin concentration was reduced to 10 μg/mL and the cell lines were frozen prior to testing in functional assays.” left out
as §5

HalhaPK-R3a [10] = assay: Initial screening at 500 nM, Sf9 cells expressing HalhaPK-R3a; settings: three independent experiments
Experimental: as §1, with “Each transfected cell line was cultured in the presence of 20 μg/mL blasticidin for ∼3 weeks until a blasticidin-resistant cell line was established, after which the blasticidin concentration was reduced to 10 μg/mL and the cell lines were frozen prior to testing in functional assays.” left out
as §5

Compound | EC50 (HalhaPK-R1b [1]) [nM] | EC50 (HalhaCAPA-R) [nM] | Response in functional assay (words) (HalhaCAPA-R) | EC50 (HalhaPK-R3b [2]) [nM] | EC50 (HalhaPK-R1a [3]) [nM] | EC50 (HalhaPK-R3a [4]) [nM] | EC50 (HalhaPK-R2 [5]) [nM] | Ligand-induced receptor activation (response in words) (HalhaPK-R1a [6]) | Ligand-induced receptor activation (response in words) (HalhaPK-R1b [7]) | Ligand-induced receptor activation (response in words) (HalhaPK-R2 [8]) | Ligand-induced receptor activation (response in words) (HalhaPK-R3b [9]) | Ligand-induced receptor activation (response in words) (HalhaPK-R3a [10]) | Response in functional assay (words) (HalhaPK-R3a [4]) | further results
CC(C)C[C@H](NC(=O)CNC(=O)[C@H](C)NC(=O)[C@@H](N)CC(=O)O)C(=O)N[C@@H](Cc1ccccc1)C(=O)N1CCC[C@H]1C(=O)N[C@@H](Cc1ccccc1)C(=O)N1CCC[C@H]1C(=O)N[C@@H](CCCNC(=N)N)C(=O)N[C@H](C(N)=O)C(C)C [CAPA-PVK1] | > 1000 | 80 | responded specifically to PVK1 and PVK2 peptides; also recorded: concentration-dependent response to PVK1 and PVK2 (Figure 2), with similar sensitivity and degree of absolute magnitude | > 1000 | > 1000 | > 1000 | > 1000 |  |  |  |  |  |  | 
CC[C@H](C)[C@H](NC(=O)[C@H](CC(C)C)NC(=O)[C@H](CCC(N)=O)NC(=O)[C@@H](N)CCC(=O)O)C(=O)N1CCC[C@H]1C(=O)N[C@@H](Cc1ccccc1)C(=O)N1CCC[C@H]1C(=O)N[C@@H](CCCNC(=N)N)C(=O)N[C@H](C(N)=O)C(C)C [CAPA-PVK2] | > 1000 | 57 | responded specifically to PVK1 and PVK2 peptides; also recorded: concentration-dependent response to PVK1 and PVK2 (Figure 2), with similar sensitivity and degree of absolute magnitude | > 1000 | > 1000 | > 1000 | > 1000 |  |  |  |  |  |  | 
FYAPFSPRL-NH2 [PBAN/PK2] | 420 | > 1000 |  | 142 | > 1000 | 199 | 35 | responded to PK2 and CAPA-DH peptides to varying degrees | responded to PK2 and CAPA-DH peptides to varying degrees | responded to PK2 and CAPA-DH peptides to varying degrees | responded to PK2 and CAPA-DH peptides to varying degrees | responded to PK2 and CAPA-DH peptides to varying degrees | positive concentration-dependent activity | Response in functional assay (words) (HalhaPK-R1b [1]; HalhaPK-R1b, Sf9 cells, concentration-response): positive concentration-dependent activity; also recorded: responded weakly; Response in functional assay (words) (HalhaPK-R3b [2]): positive concentration-dependent activity; also recorded: strongly responded to both PK1 and PK2 peptides; Response in functional assay (words) (HalhaPK-R1a [3]; HalhaPK-R1a, Sf9 cells, concentration-response): positive concentration-dependent activity; also recorded: responded weakly; Response in functional assay (words) (HalhaPK-R2 [5]): strongest response; also recorded: responded strongly; also recorded: positive concentration-dependent activity; also recorded: much more sensitive to PK2 than the PK1 peptide
NGASGNGGLWFGPRL-NH2 [CAPA-DH/PK1] | > 1000 | > 1000 |  | 91 | > 1000 | 660 | 800 | responded to PK2 and CAPA-DH peptides to varying degrees | responded to PK2 and CAPA-DH peptides to varying degrees | responded to PK2 and CAPA-DH peptides to varying degrees | responded to PK2 and CAPA-DH peptides to varying degrees | responded to PK2 and CAPA-DH peptides to varying degrees | concentration-dependent responses | Response in functional assay (words) (HalhaPK-R3b [2]; listed as CAPA-DH): highest sensitivity to PK1 (= CAPA-DH), especially for HalhaPK-R3b; also recorded: concentration-dependent responses; also recorded: most sensitive to CAPA-DH among the six GPCRs; Response in functional assay (words) (HalhaPK-R3b [2]; listed as PK1): strongest response to PK1; also recorded: strongly responded to both PK1 and PK2 peptides; Response in functional assay (words) (HalhaPK-R2 [5]; listed as CAPA-DH): concentration-dependent responses; Response in functional assay (words) (HalhaPK-R2 [5]; listed as PK1): moderate response
